{"source": "patent US20130004581A1", "about": "“CONTROLLING UPTAKE BY CELLS” (Ramot at Tel-Aviv University Ltd., priority 2010, published 2013)", "key": {"COS 5-7 cells [1]": {"system": "COS 5-7 cells", "assay": "Uptake after one minute of chemically induced low pH (HCl added to HBSS suspension), FACS", "type": "cell-based, African green monkey", "settings": "for Folds Uptake mean: 1 min, 10 μM Dextran-FITC", "description": "The following tables show a connection between pH and current. […] The values in the tables are shown as folds relative to the uptake in cells unexposed to any of the treatments. […] The results are expected to be substantially independent of cell type and molecule used, except for a cell-specific change and a molecule specific change.\nCells (COS 5-7) were harvested, re-suspended in DMEM (1 mg/ml glucose, 5% FCS), and incubated (37°, 5% CO2) as designated by the experiment. For uploading the cells with either H2DCF-DA (20 μM) or Bis-DHA (1 mM) incubation lasted 90 minutes. When no pre-treatments were required, the cells were kept in the DMEM for 30 minutes. Following incubation, the cells were centrifuged at 400g for 1 min, the solution aspirated, and cells re-suspended in HBSS exposure media.\nExposure of cells to pulse acidification was through the addition of HCl to the HBSS suspension for 60 seconds, terminated by the addition of a three fold larger volume of DMEM-H.\nCell suspensions were centrifuged (400g for one minute), their solutions aspirated and they were re-suspended with 0.5 ml DMEM-H supplemented with 10u/ml dextranase (Sigma-Aldrich) for 10 minutes at RT. Cells were centrifuged again; their solution aspirated and they were re-suspended with 0.2 ml DMEM-H. PI (25 μg/ml) as a label for permeabilized cells and tryphan blue (0.01% w/v) as a fluorescence quenching agent for extracellular FITC (36) were added to each sample shortly before analysis\nFlow cytometry analysis was carried out by FACSort (Becton @ Dickson, San Jose, Calif.), employing a 488-nm argon laser excitation. The green fluorescence of FITC was measured via 530/30 nm filter, the red fluorescence of PI was detected via a 585/42 nm filter. […] Ten thousand cells were examined for each sample and data were collected in the list mode. The analysis of flow cytometry data was performed using WINMDI 2.9 software (Joe Trotter, The Scripps Research Institute). For each sample the geometrical mean was calculated without including PI stained cells. Cell intensity was determined as fold of induction relative to cells' constitutive uptake.\nAfter one minute incubation, cell suspensions were immediately diluted with 3 fold larger volume of cold buffered DMEM to restore pH to a normal pH of 7.5."}, "COS 5-7 cells [2]": {"system": "COS 5-7 cells", "assay": "Uptake after one minute of electric pulse train (EPT) in three-compartment device, FACS", "type": "cell-based, African green monkey", "settings": "for Folds Uptake mean: electric field 200 mA/cm^2; for Folds Uptake mean / Folds Uptake Fold: 1 min, 10 μM Dextran-FITC; for Folds Uptake Fold: relative to unexposed cells", "experimental": "Exposure of cells to low-intensity trains of unipolar rectangular voltage pulses was carried in a three-compartment exposure set-up where the anode and cathode were connected to an electric pulse generator (Grass S44 Stimulator). The exposure set-up consisted of a rectangular chamber made from polystyrene, 15 mm long, 10 mm wide, with 0.5 cm^2 area platinum electrodes positioned on the extreme sides (see FIG. 15). The chamber is divided by two porous membranes (PolyEtherSulfon, 0.8 μm pores, 200 μm depth), into three distinct and equal compartments: anode, cathode and center ones. The electric field parameters applied were monitored on line by recording the voltage and the current (by means of a wide band current probe, Pearson) on an oscilloscope. Typically, a cell suspension (1*10^6 cells/ml) is exposed to a train of electric pulses consisting of unipolar rectangular pulses with duration of 180 μs, frequency of 500 Hz for the total time of exposure of one minute.\nFlow cytometry analysis was carried out by FACSort (Becton @ Dickson, San Jose, Calif.), employing a 488-nm argon laser excitation. […] Ten thousand cells were examined for each sample and data were collected in the list mode. The analysis of flow cytometry data was performed using WINMDI 2.9 software (Joe Trotter, The Scripps Research Institute). For each sample the geometrical mean was calculated without including PI stained cells. Cell intensity was determined as fold of induction relative to cells' constitutive uptake."}, "Caco2/TC7 cells": {"system": "Caco2/TC7 cells", "assay": "Proton induced uptake (PIU) in Caco2/TC7 cells, FACS", "type": "cell-based", "settings": "pH 5; 5 minutes; P<0.001", "description": "Caco-2 cells were cultivated, and were harvested when reaching 80% confluence by the use of trypsin-EDTA. The cell suspensions were immediately diluted in full medium (DMEM with 4.5 mg/ml glucose, 10% FCS), centrifuged and re-suspended in recovery medium (HBSS or PBS).\nOnce exposure is terminated the suspension is transferred to a small vial where it is either incubated at 37° C. or immediately cooled down to 4° C. All samples are collected together on ice and then simultaneously analyzed.\nAcidification is imposed by supplementing the suspension with 10 mM MES buffer and the concentrations of HCl required for reaching the experimental pH level.\nThe cells are washed by being centrifuged, re-suspended with fresh DMEM (without phenol-red or FCS), incubated at room temperature with probe specific digestive enzymes, where appropriate, centrifuged and washed again.\nFor FACS analysis, Trypan-blue (0.01%) and PI (2 μg/ml) are added to the cells suspension to quench residual extracellular fluorescence and stain necrotic cells, respectively."}}, "data": [{"substance": "Dextran-FITC", "values": [{"measurement": "Folds Uptake mean", "setting": "COS 5-7 cells [1]; pH 1.6, relative to unexposed cells", "result": 48.09, "unit": "folds"}, {"measurement": "Folds Uptake mean", "setting": "COS 5-7 cells [1]; pH 1.9, relative to unexposed cells", "result": 42.47, "unit": "folds"}, {"measurement": "Folds Uptake mean", "setting": "COS 5-7 cells [1]; pH 2.5, relative to unexposed cells", "result": 47.62, "unit": "folds"}, {"measurement": "Folds Uptake mean", "setting": "COS 5-7 cells [1]; pH 2.9, relative to unexposed cells", "result": 45.54, "unit": "folds"}, {"measurement": "Folds Uptake mean", "setting": "COS 5-7 cells [1]; pH 3.1, relative to unexposed cells", "result": 41.25, "unit": "folds"}, {"measurement": "Folds Uptake mean", "setting": "COS 5-7 cells [1]; pH 3.3, relative to unexposed cells", "result": 20.14, "unit": "folds"}, {"measurement": "Folds Uptake mean", "setting": "COS 5-7 cells [1]; pH 3.5, relative to unexposed cells", "result": 9.575, "unit": "folds"}, {"measurement": "Folds Uptake mean", "setting": "COS 5-7 cells [1]; pH 3.7, relative to unexposed cells", "result": 7.679, "unit": "folds"}, {"measurement": "Folds Uptake mean", "setting": "COS 5-7 cells [1]; pH 4, relative to unexposed cells", "result": 4.776, "unit": "folds"}, {"measurement": "Folds Uptake mean", "setting": "COS 5-7 cells [1]; pH 4.7, relative to unexposed cells", "result": 3.856, "unit": "folds"}, {"measurement": "Folds Uptake mean", "setting": "COS 5-7 cells [1]; pH 5, relative to unexposed cells", "result": 2.594, "unit": "folds"}, {"measurement": "Folds Uptake mean", "setting": "COS 5-7 cells [1]; pH 5.8, relative to unexposed cells", "result": 2.636, "unit": "folds"}, {"measurement": "Folds Uptake mean", "setting": "COS 5-7 cells [1]; pH 6, relative to unexposed cells", "result": 1.483, "unit": "folds"}, {"measurement": "Folds Uptake mean", "setting": "COS 5-7 cells [1]; pH 6.25, relative to unexposed cells", "result": 1.619, "unit": "folds"}, {"measurement": "Folds Uptake mean", "setting": "COS 5-7 cells [1]; pH 7.4 (reference)", "result": 1, "unit": "folds"}, {"measurement": "pH at which uptake reaches saturation", "setting": "COS 5-7 cells [1]; steep elevation of uptake starting at pH 4", "result": 3, "unit": "pH"}, {"measurement": "Folds Uptake mean", "setting": "COS 5-7 cells [2]; 60 mM HEPES in HBSS", "result": 51.98, "unit": "folds"}, {"measurement": "Folds Uptake mean", "setting": "COS 5-7 cells [2]; 70 mM HEPES in HBSS", "result": 48.84, "unit": "folds"}, {"measurement": "Folds Uptake mean", "setting": "COS 5-7 cells [2]; 80 mM HEPES in HBSS", "result": 14.86, "unit": "folds"}, {"measurement": "Folds Uptake mean", "setting": "COS 5-7 cells [2]; 90 mM HEPES in HBSS", "result": 12.81, "unit": "folds"}, {"measurement": "Folds Uptake mean", "setting": "COS 5-7 cells [2]; 100 mM HEPES in HBSS", "result": 10.06, "unit": "folds"}, {"measurement": "Folds Uptake mean", "setting": "COS 5-7 cells [2]; 120 mM HEPES in HBSS", "result": 4.613, "unit": "folds"}, {"measurement": "Folds Uptake mean", "setting": "COS 5-7 cells [2]; 150 mM HEPES in HBSS", "result": 3.106, "unit": "folds"}, {"measurement": "Folds Uptake Fold", "setting": "COS 5-7 cells [2]; 10 V/cm, 80 mA/cm^2", "result": 1.62, "unit": "folds"}, {"measurement": "Folds Uptake Fold", "setting": "COS 5-7 cells [2]; 13.3 V/cm, 120 mA/cm^2", "result": 2.449, "unit": "folds"}, {"measurement": "Folds Uptake Fold", "setting": "COS 5-7 cells [2]; 16.6 V/cm, 160 mA/cm^2", "result": 6.017, "unit": "folds"}, {"measurement": "Folds Uptake Fold", "setting": "COS 5-7 cells [2]; 20 V/cm, 80 mA/cm^2", "result": 1.824, "unit": "folds"}, {"measurement": "Folds Uptake Fold", "setting": "COS 5-7 cells [2]; 20 V/cm, 120 mA/cm^2", "result": 3.015, "unit": "folds"}, {"measurement": "Folds Uptake Fold", "setting": "COS 5-7 cells [2]; 20 V/cm, 160 mA/cm^2", "result": 5.476, "unit": "folds"}, {"measurement": "Folds Uptake Fold", "setting": "COS 5-7 cells [2]; 20 V/cm, 200 mA/cm^2, 100 mM HEPES", "result": 9.134, "unit": "folds"}, {"measurement": "Folds Uptake Fold", "setting": "COS 5-7 cells [2]; 26.6 V/cm, 200 mA/cm^2", "result": 11.73, "unit": "folds"}, {"measurement": "Folds Uptake Fold", "setting": "COS 5-7 cells [2]; 33.3 V/cm, 200 mA/cm^2", "result": 10.49, "unit": "folds"}, {"measurement": "Folds Uptake Fold", "setting": "COS 5-7 cells [2]; 46.6 V/cm, 80 mA/cm^2", "result": 1.694, "unit": "folds"}, {"measurement": "Folds Uptake Fold", "setting": "COS 5-7 cells [2]; 46.6 V/cm, 160 mA/cm^2", "result": 6.34, "unit": "folds"}, {"measurement": "Folds Uptake Fold", "setting": "COS 5-7 cells [2]; 66.6 V/cm, 120 mA/cm^2", "result": 3.447, "unit": "folds"}, {"measurement": "increase in cellular uptake in the anodic compartment", "setting": "COS 5-7 cells [2]; train of electric pulses 20V/cm, 200 mA/cm^2, anodic compartment only, relative to constitutive uptake", "result": 10, "unit": "fold"}, {"measurement": "dextran concentration relative to HT29 cells", "setting": "Caco2/TC7 cells", "result": 2, "unit": "folds"}]}]}
